Test [1] relates to ischemic/reperfused myocardium. Description: In vivo phage homing to ischemia-reperfusion injured heart (phage per gram heart / phage per gram brain). The arrangement: species or system mice. As to conditions: for Homing to ischemic/reperfused myocardium (in words) / Enrichment (relative enrichment compared with insertless phage): individual phage; for Homing to ischemic/reperfused myocardium (in words): ischemia-reperfusion injured animals; for Enrichment (relative enrichment compared with insertless phage): Targeted tissue Ischemic Heart.
Procedure: Individual phage obtained from screening in ischemic-reperfused hearts were injected at 5×10^9 TU intravenously into normal animals (open squares) or animals subject to 30 minutes myocardial ischemia by occlusion of the left anterior descending (LAD) coronary artery followed by 30 minutes reperfusion (closed circles). Phage were allowed to circulate for 5 minutes prior to perfusion of the vasculature and harvesting of the heart and brain. The number of phage recovered from the heart (per gram) was normalized by the number of phage recovered from the brain (per gram). […] The data shown are-the logarithmic means and logarithmic standard errors of the multiple experiments.
The number of phage recovered from the heart (per gram) was normalized by the number of phage recovered from the brain (per gram). The data shown are the logarithmic means and logarithmic standard errors for six to seven individual experiments.
(§1) All data were calculated as the ratio of the number of phage obtained per gram of heart tissue to the number of phage obtained per gram of brain tissue. Means, standard deviations, standard errors and parametric statistics were based on the assumption that this ratio is derived from a log-normal distribution.
Ischemia-reperfusion was performed as follows using large male CD-1 mice weighing about 40 grams to facilitate the surgical protocol. Briefly, mice were anesthetized by an intramuscular injection of a mixture of xylazine (50 mg/kg) and ketamine (50 mg/kg) and subsequently intubated with an endotracheal tube and ventilated with a mixture of oxygen and room air using a Harvard Apparatus (0.05 ml; 100 bpm). The heart was exposed with a left thoracotomy, and a 7-0 suture was placed under the left anterior descending (LAD) coronary artery; the vessel was occluded by tying a knot over a small piece of polyethylene tubing (PE50). Ischemia was confirmed by cyanosis of the myocardium. After 30 minutes of occlusion, the knot was cut and blood flow restored to the region. Reperfusion was allowed to proceed for 30 minutes before phage targeting to allow for some vascular changes while limiting neutrophil recruitment to the area.

The next test concerns normal heart. Nature of the test: In vivo phage homing to normal heart (phage per gram heart / phage per gram brain). Also noted: species or system mice. Conditions: for Homing to normal heart (in words) / Enrichment (relative enrichment compared with insertless phage): individual phage; for Homing to normal heart (in words): normal animals; for Enrichment (relative enrichment compared with insertless phage): Targeted tissue Normal Heart, n=6 or 7 animals; for Enrichment in normal heart as compared to brain: normal heart versus control brain tissue, phage expressing the peptide.

For the next test, the system named is ischemic left ventricle. Nature of the test: Phage recovered from injured left ventricle versus right ventricle and septum, ischemic hearts. It counts as in vivo, mice. As to conditions: animals after myocardial ischemia-reperfusion. The method, then: The number of phage recovered from the left ventricle (g^−1) was normalized by the number of phage recovered from the right ventricle and septum (g^−1). The overall data shown are a logarithmic mean and logarithmic standard deviation for 47 normal and 35 ischemic hearts. The data for phage bearing SEQ ID NO: 10 (R13) are for six individual animals each.
Ischemia-reperfusion was performed as follows using large male CD-1 mice weighing about 40 grams to facilitate the surgical protocol. Briefly, mice were anesthetized by an intramuscular injection of a mixture of xylazine (50 mg/kg) and ketamine (50 mg/kg) and subsequently intubated with an endotracheal tube and ventilated with a mixture of oxygen and room air using a Harvard Apparatus (0.05 ml; 100 bpm). The heart was exposed with a left thoracotomy, and a 7-0 suture was placed under the left anterior descending (LAD) coronary artery; the vessel was occluded by tying a knot over a small piece of polyethylene tubing (PE50). Ischemia was confirmed by cyanosis of the myocardium. […]
As a further test of specificity for homing to ischemic heart, phage homing to the injured left ventricle was compared to homing to the normal right ventricle and septum. […] When the ratio of phage accumulation in the left ventricle only is calculated relative to accumulation in the brain, the preferential accumulation of […] […]

Entries after “also recorded” stand apart in the source; their conditions may differ.

The values below come from patent US7144860B2, “Heart homing conjugates” (priority 1999, dated 2006).

Procedure for normal heart: Individual phage (5×10^9 TU) were injected intravenously and allowed to circulate for 5 minutes prior to perfusion of the vasculature and harvesting of the heart and brain. The number of phage recovered from the heart (per gram) was normalized by the number of phage recovered from the brain (per gram). Fd-tet was a phage without any additional peptide insert. […] The data shown are the logarithmic means and logarithmic standard errors of the multiple experiments.
In vivo panning was performed to identify phage that selectively home to normal coronary endothelium by injection of phage libraries and isolation of individual phage from the heart as follows. […] Both linear (X7 (SEQ ID NO: 1)) and cyclic (CX7C (SEQ ID NO: 13), CX9C (SEQ ID NO: 14), and CX11C (SEQ ID NO: 15)) libraries were used, where “C” indicates cysteine and “XN” indicates the given number of individually selected amino acids.
Libraries were administered independently with the initial titer of the various libraries. In vivo phage selection was performed as described in Pasqualini and Ruoslahti, Nature 380:364–366 (1996), with a few modifications. In both normal and ischemic targeting, 2.5×10^8 transducing units of the initial phage libraries were injected intravenously into the jugular vein. After 5 minutes of phage circulation in vivo, the heart was arrested by intraventricular injection of a hyperkalemic (30 mM KCl), hypothermic solution of DMEM, and the vasculature cleared of blood by perfusion with 5–10 ml of hyperkalemic DMEM through a left ventricular cannula. After the heart and brain were harvested, homogenized and weighed, phage were rescued by infection with K91 Kan bacteria. For the second and third rounds of selection, 200 normal or 100 ischemic clones were picked from the previous round and individually grown to saturation. Cultures were then pooled, phage particles purified and 10^10 TU of a pool reinjected into similarly treated mice.
as §1

Regarding “RPGRLNG (phage displayed) [SEQ ID NO: 8]”, the “Homing to ischemic/reperfused myocardium (in words)” value in test [1] is given as “did not change”. Besides, the “Homing to normal heart (in words)” value with normal heart is given as “did not home to normal heart; also recorded: clearly did not target the normal myocardium”.

Regarding “GGGVFWQ (phage displayed) [SEQ ID NO: 2]”, the “Homing to ischemic/reperfused myocardium (in words)” value in test [1] was “remained enriched”. For the same substance, in the test on normal heart, the “Enrichment (relative enrichment compared with insertless phage)” value is approximately 5 fold and the “Homing to normal heart (in words)” value is reported as “binds to normal heart; also recorded: strongly targeted the normal myocardium”. For the same substance, the “Enrichment (relative enrichment compared with insertless phage)” value in the test on normal heart (listed as 2) is on record as 5-fold.

Consider “HGRVRPH (phage displayed) [SEQ ID NO: 3]”, for which the results for the “Enrichment (relative enrichment compared with insertless phage)” value in the test with normal heart and in the test on normal heart (listed as 3) were approximately 2 fold and 2-fold, respectively. In the test on normal heart, the “Enrichment in normal heart as compared to brain” value (shortened to “Enrichment … compared to brain”) is “at least two-fold”.

For “CLHRGNSC (phage displayed) [SEQ ID NO: 9]”, the “Enrichment (relative enrichment compared with insertless phage)” value in test [1] was approximately 2 fold; in the test on normal heart it was approximately 2 fold; in the test on normal heart (listed as 9) it was 2-fold. Moreover, the “Enrichment … compared to brain” value in the test on normal heart is reported as “at least two-fold”.

On to “VVLVTSS (phage displayed) [SEQ ID NO: 4]”, for which, in the test with normal heart, the “Enrichment (relative enrichment compared with insertless phage)” value was approximately 2 fold and the “Enrichment … compared to brain” value is recorded as “at least two-fold”. Besides, the “Enrichment (relative enrichment compared with insertless phage)” value with normal heart (listed as 4) is 2-fold.

As for “CRSWNKADNRSC (phage displayed) [SEQ ID NO: 10]”, the figures for the “Enrichment (relative enrichment compared with insertless phage)” value in test [1] and in test [1] (listed as 10) were 5 fold and 5-fold, respectively. The “Phage accumulation in the left ventricle only relative to accumulation in the brain” value in test [1] (ischemia-reperfusion injured hearts, left ventricle only) amounted to 7 fold. The “Homing to normal heart (in words)” value with normal heart is reported as “did not target the normal heart”. Moreover, the “Preferential homing to the ischemic left ventricle versus right ventricle (in words)” value in the test with ischemic left ventricle is listed as “more phage were recovered from the injured left ventricle than the right ventricle; also recorded: preferentially homed to the ischemic left ventricle as compared to the uninjured right ventricle”.
